Laboratory results: ChEMBL document CHEMBL1201862, “PubChem BioAssay data set” (2004)
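1) Cells in 96-well plates. 2) Compound, 48 h, 5 concentrations. 3) Linear interpolation between surrounding doses. 4) Unreached endpoint = highest concentration. Abbreviation: GI50, concentration required for 50% inhibition of growth.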 Active and inactive are the calls of the source. Rule as the data show it: active = GI50 up to about 1.1 µM and inactive = higher. *1 amine or outer side, *2 acyl side, *3 side chain or, on linkers, in order; H or OH if unused. Where a SMILES comes first, the peptide text is derived from it. Bridges are numbered along the chain shown (N, C = ends). Roman numbers before positions name the chains, in order. [ ]: non-standard residue; d: D form. Actinocin(1to9) = Cc1c2oc3c(C)ccc(C(=O)[*:2])c3nc-2c(C(=O)[*:1])c(N)c1=O; NMeV = CN[CH](C(=O)O)C(C)C; Sar = CNCC(=O)O

Legend:
Assay in all cases: inhibition of tumour cell growth, NCI panel, 48 h
[1] = tested on: HCC 2998
[2] = tested on: COLO 205
[3] = tested on: SF-295
[4] = tested on: T47D
[5] = tested on: CAKI-1
[6] = tested on: HCT-15
[7] = tested on: NCI-H460
[8] = tested on: HOP-62
[9] = tested on: SF-268
[10] = tested on: EKVX
[11] = tested on: ACHN
[12] = tested on: OVCAR-4
[13] = tested on: SW-620
[14] = tested on: SK-MEL-28
[15] = tested on: SK-OV-3
[16] = tested on: NCI-H522
[17] = tested on: MDA-MB-231
[18] = tested on: U-251
[19] = tested on: M14
[20] = tested on: BT-549

| SMILES | GI50 [1] | GI50 [2] | GI50 [3] | GI50 [4] | GI50 [5] | GI50 [6] [µM] | GI50 [7] | GI50 [8] | GI50 [9] | GI50 [10] | GI50 [11] | GI50 [12] | GI50 [13] | GI50 [14] | GI50 [15] | GI50 [16] | GI50 [17] | GI50 [18] | GI50 [19] | GI50 [20] |
| --- | --- | --- | --- | --- | --- | --- | --- | --- | --- | --- | --- | --- | --- | --- | --- | --- | --- | --- | --- | --- |
| O=C(c1cc(Cl)cc(Cl)c1)N(C(=O)N1CCN(c2ccccc2)CC1)c1ccccc1 | 51.9 µM (inactive) | 17.3 µM (inactive) | 37.2 µM (inactive) | 18.1 µM (inactive) | 33.1 µM (inactive) | 17 | 29.7 µM (inactive) | 87.1 µM (inactive) | 43.1 µM (inactive) | 20.7 µM (inactive) | 72.9 µM (inactive) | 23 µM (inactive) | 30.3 µM (inactive) | 56.1 µM (inactive) | 96.6 µM (inactive) | 16.4 µM (inactive) | 52.1 µM (inactive) | 39.7 µM (inactive) | 27.6 µM (inactive) | 48.1 µM (inactive) |
| CCC(C)C1NC(=O)C(NC(=O)c2c3nc4c(C(=O)NC5C(=O)NC(C(C)C)C(=O)N6CCCC6C(=O)N(C)CC(=O)N(C)C(C(C)C)C(=O)OC5C)ccc(C)c4oc-3c(C)c(=O)c2N)C(C)OC(=O)C(C(C)C)N(C)C(=O)CN(C)C(=O)C2CCCN2C1=O (stereo unspecified) (I: TIP[Sar][NMeV] / II: TVP[Sar][NMeV]; ester I:1-I:C, II:1-II:C; linker I:N-II:N via Actinocin(1to9); configuration not given here) | 0.237 µM (active) | < 0.0001 µM (active) | 0.000353 µM (active) | 0.00183 µM (active) | 0.00378 µM (active) | 0.0807 | < 0.0001 µM (active) | 0.000594 µM (active) | 0.000916 µM (active) | 0.00377 µM (active) | 0.000647 µM (active) | 0.0102 µM (active) | < 0.0001 µM (active) | 0.000733 µM (active) | 0.0152 µM (active) | < 0.0001 µM (active) | 0.000173 µM (active) | < 0.0001 µM (active) | 0.00269 µM (active) | 0.00247 µM (active) |
| O=C1Nc2ccccc2C1Cc1ccc([N+](=O)[O-])cc1 (stereo unspecified) | > 100 µM (inactive) | 50 µM (inactive) | > 100 µM (inactive) | > 100 µM (inactive) | > 100 µM (inactive) | > 100 | > 100 µM (inactive) | > 100 µM (inactive) | > 100 µM (inactive) | > 100 µM (inactive) | > 100 µM (inactive) | 84.5 µM (inactive) | > 100 µM (inactive) | > 100 µM (inactive) | > 100 µM (inactive) | 35.9 µM (inactive) | 14 µM (inactive) | > 100 µM (inactive) | > 100 µM (inactive) | > 100 µM (inactive) |
| CC(C)OP(=O)(OC(C)C)C(C(C)C)N(C)/C(F)=N/C(F)(F)F (stereo unspecified) | > 100 µM (inactive) | > 100 µM (inactive) | > 100 µM (inactive) | > 100 µM (inactive) | > 100 µM (inactive) | > 100 | > 100 µM (inactive) | > 100 µM (inactive) | > 100 µM (inactive) | > 100 µM (inactive) | > 100 µM (inactive) |  | > 100 µM (inactive) | > 100 µM (inactive) | > 100 µM (inactive) | > 100 µM (inactive) | > 100 µM (inactive) | > 100 µM (inactive) | > 100 µM (inactive) | > 100 µM (inactive) |
| O=C(O)c1cc2ccc3ccccc3c2oc1=O | > 100 µM (inactive) | > 100 µM (inactive) | > 100 µM (inactive) | > 100 µM (inactive) | > 10 µM (inactive) | > 100 | > 100 µM (inactive) | > 100 µM (inactive) | > 100 µM (inactive) | 31.3 µM (inactive) | > 100 µM (inactive) | > 100 µM (inactive) | > 100 µM (inactive) | > 100 µM (inactive) | > 100 µM (inactive) | > 100 µM (inactive) | > 100 µM (inactive) | > 100 µM (inactive) | > 100 µM (inactive) | > 100 µM (inactive) |
| Brc1cccc(Nc2nc(-c3cccs3)nc3ccc(Br)cc23)c1 | 20.2 µM (inactive) | 33 µM (inactive) | 19.9 µM (inactive) | 9.89 µM (inactive) | 23.1 µM (inactive) | 26.5 | 21.7 µM (inactive) | 32.1 µM (inactive) | 26.3 µM (inactive) | 15 µM (inactive) | 27.7 µM (inactive) | 27.8 µM (inactive) | 26.9 µM (inactive) | 25.2 µM (inactive) | > 100 µM (inactive) | 19 µM (inactive) | 20.7 µM (inactive) | 31.5 µM (inactive) | 25.5 µM (inactive) | 80.9 µM (inactive) |
| CCOC(=O)CCC(NC(=O)Cc1ccc(Nc2nc3ccccc3nc2-c2ccccc2)cc1)C(=O)OCC (stereo unspecified) | > 100 µM (inactive) | > 100 µM (inactive) | 16.1 µM (inactive) | > 100 µM (inactive) | > 100 µM (inactive) | > 100 | > 100 µM (inactive) | 6.46 µM (inactive) | 5.26 µM (inactive) | 63 µM (inactive) | 41.5 µM (inactive) | 6.79 µM (inactive) | > 100 µM (inactive) | > 100 µM (inactive) | 22.4 µM (inactive) | 20.7 µM (inactive) | 16.9 µM (inactive) | 15.1 µM (inactive) | 65.6 µM (inactive) | 46.8 µM (inactive) |
| C/C(=N/NC(=S)N1CCN(C(=S)N/N=C(/C)c2ccccn2)CC1)c1ccccn1 | 22.5 µM (inactive) | 4.16 µM (inactive) | 6.25 µM (inactive) | 3.52 µM (inactive) | 6.56 µM (inactive) | 2.15 | 2.99 µM (inactive) | 10 µM (inactive) | 3.03 µM (inactive) | 15.6 µM (inactive) | 2.52 µM (inactive) | 8.2 µM (inactive) | 7 µM (inactive) | 14.3 µM (inactive) | 8.3 µM (inactive) | 7.64 µM (inactive) | 45.2 µM (inactive) | 8.89 µM (inactive) | 4.47 µM (inactive) | 15.9 µM (inactive) |
| Cc1ccc(SC(=O)N2C(=S)N=C(NC3CCCCC3)C23CCCCC3)cc1 | > 100 µM (inactive) | 43.4 µM (inactive) | > 100 µM (inactive) | 52.1 µM (inactive) | > 100 µM (inactive) | 87.9 | 81.3 µM (inactive) | > 100 µM (inactive) | > 100 µM (inactive) | > 100 µM (inactive) | 80 µM (inactive) | > 100 µM (inactive) | > 100 µM (inactive) | > 100 µM (inactive) | > 100 µM (inactive) | 65.8 µM (inactive) | > 100 µM (inactive) | 95.3 µM (inactive) | > 100 µM (inactive) | 57.5 µM (inactive) |
| Cc1nc(C)c(N2CCN(C(=O)NC(CCC(=O)O)C(=O)O)CC2)c(O)n1 (stereo unspecified) | > 100 µM (inactive) | > 100 µM (inactive) | > 100 µM (inactive) | > 100 µM (inactive) | > 100 µM (inactive) | > 100 | > 100 µM (inactive) | > 100 µM (inactive) | > 100 µM (inactive) | > 100 µM (inactive) | > 100 µM (inactive) | > 100 µM (inactive) | > 100 µM (inactive) | > 100 µM (inactive) | > 100 µM (inactive) | > 100 µM (inactive) | > 100 µM (inactive) | > 100 µM (inactive) | > 100 µM (inactive) | > 100 µM (inactive) |
| COC(=O)c1ccccc1C1CN=NC12Cc1ccc3c(c1C2=O)CCC3 (stereo unspecified) | > 100 µM (inactive) | > 100 µM (inactive) | 70.6 µM (inactive) | 19.2 µM (inactive) | > 100 µM (inactive) | > 100 | 70 µM (inactive) | > 100 µM (inactive) | 27.6 µM (inactive) | > 100 µM (inactive) | 50.4 µM (inactive) | > 100 µM (inactive) | > 100 µM (inactive) | > 100 µM (inactive) | 49.4 µM (inactive) | 6.55 µM (inactive) | 75.5 µM (inactive) | 49.1 µM (inactive) | > 100 µM (inactive) | > 100 µM (inactive) |
| O=C(O)[C@@H]1CCCN1 [PROLINE] | > 100 µM (inactive) | > 100 µM (inactive) | > 100 µM (inactive) | > 100 µM (inactive) |  | > 100 | > 100 µM (inactive) | > 100 µM (inactive) | > 100 µM (inactive) | > 100 µM (inactive) | > 100 µM (inactive) | > 100 µM (inactive) | > 100 µM (inactive) | > 100 µM (inactive) | > 100 µM (inactive) | > 100 µM (inactive) | > 100 µM (inactive) | > 100 µM (inactive) | > 100 µM (inactive) | > 100 µM (inactive) |
| Cc1cc(S(=O)(=O)Nc2nc3ccccc3nc2-c2ccc(Cl)cc2)c(S)cc1Cl | 15.7 µM (inactive) | 16.4 µM (inactive) | 18.9 µM (inactive) | 14.5 µM (inactive) | 18.7 µM (inactive) | 20.1 | 13.6 µM (inactive) | 22.4 µM (inactive) | 17.7 µM (inactive) | 15.7 µM (inactive) | 16.7 µM (inactive) | 14.6 µM (inactive) |  | 16.8 µM (inactive) | 17.3 µM (inactive) | 13.6 µM (inactive) | 24.5 µM (inactive) | 16.4 µM (inactive) | 19.3 µM (inactive) | 23.8 µM (inactive) |
| CCC(C(=O)C(=O)C(CC)P1(=O)OC(C)(C)CN1C(C)(C)C)P1(=O)OC(C)(C)CN1C(C)(C)C (stereo unspecified) | > 100 µM (inactive) | > 100 µM (inactive) | > 100 µM (inactive) | > 100 µM (inactive) | > 100 µM (inactive) | > 100 | > 100 µM (inactive) | > 100 µM (inactive) | > 100 µM (inactive) | > 100 µM (inactive) | > 100 µM (inactive) |  | > 100 µM (inactive) | > 100 µM (inactive) | > 100 µM (inactive) | > 100 µM (inactive) | > 100 µM (inactive) | > 100 µM (inactive) | > 100 µM (inactive) | > 100 µM (inactive) |
